Measurements reported in patent US8628770B2, “Slimming cosmetic composition containing a substance inducing the production of IL-6” (Sanofi, priority 1999, dated 2014).

Test system: mature adipocytes 3T3-L1
Assay: Production of IL-6 by the mature adipocytes 3T3-L1 (ELISA)
Assay type: cell-based, murine
Settings: reference IL-6 inducer at 50 ng/ml
Description: The biological effects of substance C in vitro has been studied on the murine line 3T3-L1. This preadipocyte line, routinely cultured in DMEM medium ([…]) enriched with 10% foetal calf serum has the property of differentiating into mature adipocytes in the presence of inducers such as insulin and indomethacin (Slieker L. J. Biochem. Biophys. Res. Com. 1998, 251, 225-229). […] This passage from the stage of immature cell to the stage of functional adipocyte can be morphologically assessed by the appearance of intracytoplasmic lipid storage vesicles which are visible under the microscope or which can be biochemically detected by measuring the production of leptin, the hormone for satiety produced solely by mature adipocytes.
The influence of substance C on the adipocyte activity was evaluated at two levels. […]
Mature adipocytes 3T3-L1 (harvested after 10 days of differentiation induced by the insulin (5 μg/ml) and indomethacin (125 μm) combination) are stimulated with substance C at 1% (v/v) for 24 hours. The culture supernatant is then removed and its IL-6 content measured by ELISA (Enzyme Linked Immunosorbent Assay) according to the supplier's instructions (R&D Systems, Abingdon, GB). […]

TNF-α
IL-6 content of culture supernatant: 52 pg/mL
